Measured values taken from US20240216412A1, “OXIDIZED NICOTINAMIDE ADENINE DINUCLEOTIDE (NAD+) PRECURSOR TREATMENT FOR HEART FAILURE ALLEVIATION INDEPENDENT OF MITOCHONDRIAL PROTEIN DEACETYLATION” (University of Washington, priority 2022, published 2024).

Tests used:
[1] = test system: chronic pressure overload (TAC) induced heart failure in WT and Sirt3Ko mice; test: Survival, organ weight and histology (HW/TL, lung edema, fibrosis) after TAC; type: in vivo, mouse
Description: Mice randomly received either NR (500 mg/kg body weight) (Canto et al., 2012) or vehicle saline daily for eight-weeks. Representative M-mode images for the echocardiography can be found in FIGS. 1C and 1D. Four weeks of chronic pressure overload caused similar declines in left ventricular fractional shortening (FS %) in mice randomized to NR or vehicle groups for either WT or Sirt3Ko (FIGS. 1E and 1F). […] Similar to NR treated WT, cardiac hypertrophy, left ventricular cavity dilation, and lung edema were less severe in Sirt3Ko TAO mice that received NR treatment (FIGS. 1B-1J). All echocardiography parameters can be found in Table 1 below.
Transverse aortic constriction. Male mice (3-4 months old) underwent transverse aortic constriction (TAC) or sham surgery. Briefly, mice were anesthetized with an IP injection of 130 mg/kg ketamine and 8.8 mg/kg xylazine in saline. Mice were intubated with 20 G cannula and ventilated 140 breaths per minute by small animal TOPO ventilator (Kent Scientific). The aortic arch was exposed via a left thoracotomy and by carefully separating the thymus. A constriction of the transverse aorta was generated by tying a 6-0 Ethilon ligature against a 27-gauge blunt needle around the aorta between the brachiocephalic and left common carotid arteries. Promptly the needle was removed and the chest and skin were closed by 5-0 polypropylene suture. The animal was removed from ventilation and kept on a heating blanket during recovery from anesthesia. SR buprenorphine (0.05 mg/kg) was administered subcutaneously for analgesia. Sham operated mice underwent all the same procedures as TAC mice excluding the constriction of the aorta. All mice were monitored every 12 h during the first 72 h post-surgery, followed by daily visits over the next 4 weeks.
Organ weight and histological assessment. Hearts from mice were harvested, rinsed briefly in 1×PBS, blotted dry, and weighed. Lungs from the same mice were harvested, weighed, then dried at 56 C. After 72 hours the lungs were weighed again. Heart weight (HW) and Lung weight (LW) was normalized to tibia length (TL) to assess changes in hypertrophic growth and lung edema, respectively. For histology, hearts were perfusion fixed with 10% neutral buffered formalin. Longitudinal sections of hearts were stained with Masson's Trichrome for assessment of fibrosis by the University of Washington Histology and Imaging Core.

[2] = test system: NAD+ salvage pathway / NAD(H) redox in mouse heart; test: Cardiac NAD+/NADH determination and targeted LC-MS metabolomics in TAC hearts; type: in vivo
Description: NAD^+/NADH determination. NAD^+ and NADH were determined in 8 mg heart tissue using BioAssay Systems EnzyChrom NAD^+/NAD Assay Kit (E2ND-100) per manufactures instructions.
Targeted Metabolomics. Analysis of metabolites was done by The Northwest Metabolomics Research Center at the University of Washington. Briefly, aqueous metabolites for targeted LC-MS profiling of heart tissue samples were extracted from frozen heart tissue (10 mg) by precipitating in 80:20% methanol:water. After centrifugation, the supernatant was transferred to LC/MS auto sampler vials (Thermo Fisher). The protein pellet was redissolved in 0.1M NaOH and protein concentration measured for normalization. Samples were first homogenized in 200 μL purified deionized water at 4° C., and then 800 μL of cold methanol. Afterwards samples were vortexed, stored for 30 minutes at −20° C., sonicated in an ice bath for 10 minutes, centrifuged for 15 min at 14,000 rpm and 4° C., and then 600 μL of supernatant was collected from each sample. […] Samples were transferred into LC vials and placed into a temperature controlled autosampler for LC-MS analysis.
LC-MS Assay. Targeted LC-MS metabolite analysis was performed on a duplex-LC-MS system composed of two Shimadzu UPLC pumps, CTC Analytics PAL HTC-xt temperature-controlled auto-sampler (set at 4° C.) and AB Sciex 6500+ Triple Quadrupole MS equipped with ESI ionization source (2). UPLC pumps were connected to the autosampler in parallel and were able to perform two chromatography separations independently from each other. Each sample was injected twice on two identical analytical columns (Waters XBridge BEH Amide XP) performing separations in hydrophilic interaction liquid chromatography (HILIC) mode. While one column was performing separation and MS data acquisition in ESI+ ionization mode, the other column was getting equilibrated for sample injection, chromatography separation and MS data acquisition in ESI-mode. Each chromatography separation was 18 minutes (total analysis time per sample was 36 minutes). MS data acquisition was performed in multiple-reaction-monitoring (MRM) mode. LC-MS system was controlled using AB Sciex Analyst 1.6.3 software. Measured MS peaks were integrated using AB Sciex MultiQuant 3.0.3 software. The LC-MS assay was targeting 361 metabolites (plus 2 spiked reference internal standards). Up to 192 metabolites (plus 2 spiked standards) were measured across the study set, and over 95% of measured metabolites were measured across all the samples. In the addition to the study samples, two sets of quality control (QC) samples were used to monitor the assay performance as well as data reproducibility. One QC [QC(I)] was a pooled human serum sample used to monitor system performance and the other QC [QC(S)] was pooled study samples and this QC was used to monitor data reproducibility. Each QC sample was injected per every 10 study samples. The data were well reproducible with a median CV of 7.0%.

[3] = Sirt3Ko TAC mice, similar to NR treated WT

With `NC(=O)c1ccc[n+]([C@@H]2O[C@H](CO)[C@@H](O)[C@H]2O)c1` [NR, Nicotinamide riboside chloride] the “Fibrosis (Masson's trichrome)” value ([1]; Sirt3Ko TAC mice) was “decreased fibrosis”, the Cardiac hypertrophy [1, 3] was “less severe” and the Lung edema [1, 3] was “less severe”. For the same compound, the “Mortality (Kaplan-Meier survival curve analysis)” value ([1]; WT and Sirt3Ko TAC mice, NR vs vehicle for eight weeks) was “no significant difference in mortality”, the “Markers of lipid oxidation (oxidized glutathione)” value ([2]; TAC mice) was “decreased” and the “Cardiac levels of NAD(H)” value ([2]; WT and Sirt3Ko hearts) was “increased”. For the same compound, the “Cardiac levels of methyl-nicotinamide (MeNAM)” value ([2]; WT and Sirt3Ko hearts) was “increased”, the “Cardiac levels of nicotinamide (NAM)” value ([2]; WT and Sirt3Ko hearts) was “increased” and the “NAD+/NADH ratio” value ([2]; both genotypes, after TAC) was “normalized”. The “Metabolites indicative of myocardial fibrosis (hydroxyproline, putrescine, spermidine)” value ([2]; myocardial tissue of TAC hearts, vs vehicle) was “reduced”.
